In brackets after ≈: the same amount, converted by molar mass. Several values for one entry are separate records, joined by “and”; a condition that tells them apart may be missing. Identical values can stand only once. Like-named read-outs stand apart in the source and are kept apart here.
Assays:
[1] = target: T1, Co(II)-substituted E. coli PDF (Escherichia coli, UniProt P0A6K3); assay: PDF assay coupled to formate dehydrogenase; format: biochemical
T1 construct: made in house

[2] = target: MMP-3 (Homo sapiens, UniProt P08254); assay: Inhibition of human matrix metalloproteases; format: biochemical; conditions: read-out: percentage of MMP-3 activity remaining; for remaining activity at 1 µM: inhibitor 1.0 μM; for remaining activity at 10 µM: inhibitor 10 μM
Chain of MMP-3 (P08254 100-477): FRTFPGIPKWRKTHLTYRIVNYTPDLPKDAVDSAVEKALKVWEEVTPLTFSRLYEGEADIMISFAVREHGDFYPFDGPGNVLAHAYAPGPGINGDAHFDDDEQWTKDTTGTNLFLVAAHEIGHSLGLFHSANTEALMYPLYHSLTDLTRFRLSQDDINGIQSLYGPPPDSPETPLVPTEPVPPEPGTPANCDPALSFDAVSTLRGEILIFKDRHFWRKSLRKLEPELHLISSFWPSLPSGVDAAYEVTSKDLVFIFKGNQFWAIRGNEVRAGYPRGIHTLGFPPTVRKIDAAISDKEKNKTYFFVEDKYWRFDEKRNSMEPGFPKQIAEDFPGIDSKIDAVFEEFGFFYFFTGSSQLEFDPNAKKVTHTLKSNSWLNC
Experimental: (§1) Inhibition of Metalloproteases (MMP) Several of the inhibitors were tested for inhibition of human matrix metalloproteases, which are often used as indicators of inhibitor selectivity (no inhibition of MMP is desired). Each inhibitor was tested at two different concentrations (1.0 and 10 μM). The values reported are the percentage of MMP activity remaining in the presence of added inhibitor.

[3] = target: T2, MMP2 (Homo sapiens, UniProt P08253); assay: Inhibition of human matrix metalloproteases; format: biochemical; conditions: read-out: percentage of MMP2 activity remaining; for remaining activity at 1 µM: inhibitor 1.0 μM; for remaining activity at 10 µM: inhibitor 10 μM
T2 sequence (P08253 110-660): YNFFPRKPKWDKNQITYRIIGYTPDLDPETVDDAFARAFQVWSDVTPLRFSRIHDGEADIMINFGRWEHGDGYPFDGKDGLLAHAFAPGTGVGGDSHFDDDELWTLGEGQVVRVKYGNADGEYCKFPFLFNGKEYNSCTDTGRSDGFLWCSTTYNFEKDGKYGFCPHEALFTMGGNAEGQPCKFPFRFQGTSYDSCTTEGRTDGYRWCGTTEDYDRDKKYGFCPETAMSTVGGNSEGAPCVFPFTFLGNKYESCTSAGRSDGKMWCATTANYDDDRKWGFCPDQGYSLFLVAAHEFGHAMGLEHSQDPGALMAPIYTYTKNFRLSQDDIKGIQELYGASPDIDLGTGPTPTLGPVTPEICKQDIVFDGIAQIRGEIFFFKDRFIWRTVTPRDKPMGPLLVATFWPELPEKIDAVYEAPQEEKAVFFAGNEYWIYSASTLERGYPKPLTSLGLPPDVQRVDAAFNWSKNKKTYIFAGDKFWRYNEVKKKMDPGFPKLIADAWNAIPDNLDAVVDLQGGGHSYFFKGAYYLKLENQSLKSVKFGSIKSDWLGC
Experimental: as §1

[4] = target: T3, MMP-1 (Homo sapiens, UniProt P03956); assay: Inhibition of human matrix metalloproteases; format: biochemical; conditions: read-out: percentage of MMP-1 activity remaining; for remaining activity at 1 µM: inhibitor 1.0 μM; for remaining activity at 10 µM: inhibitor 10 μM
T3 sequence (P03956 100-469): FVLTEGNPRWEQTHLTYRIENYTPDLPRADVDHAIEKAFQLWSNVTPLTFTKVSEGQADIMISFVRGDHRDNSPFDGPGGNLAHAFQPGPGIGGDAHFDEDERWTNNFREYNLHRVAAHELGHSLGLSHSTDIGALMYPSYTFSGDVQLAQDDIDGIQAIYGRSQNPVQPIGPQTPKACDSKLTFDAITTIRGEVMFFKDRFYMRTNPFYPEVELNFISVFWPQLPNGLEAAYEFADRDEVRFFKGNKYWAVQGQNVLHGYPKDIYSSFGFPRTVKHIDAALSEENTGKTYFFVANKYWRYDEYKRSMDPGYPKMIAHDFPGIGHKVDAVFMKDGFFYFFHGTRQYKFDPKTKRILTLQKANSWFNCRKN
Experimental: as §1

[5] = target: MMP-9 (Homo sapiens, UniProt P14780); assay: Inhibition of human matrix metalloproteases; format: biochemical; conditions: read-out: percentage of MMP-9 activity remaining; for remaining activity at 1 µM: inhibitor 1.0 μM; for remaining activity at 10 µM: inhibitor 10 μM
Chain of MMP-9 (P14780 94-707): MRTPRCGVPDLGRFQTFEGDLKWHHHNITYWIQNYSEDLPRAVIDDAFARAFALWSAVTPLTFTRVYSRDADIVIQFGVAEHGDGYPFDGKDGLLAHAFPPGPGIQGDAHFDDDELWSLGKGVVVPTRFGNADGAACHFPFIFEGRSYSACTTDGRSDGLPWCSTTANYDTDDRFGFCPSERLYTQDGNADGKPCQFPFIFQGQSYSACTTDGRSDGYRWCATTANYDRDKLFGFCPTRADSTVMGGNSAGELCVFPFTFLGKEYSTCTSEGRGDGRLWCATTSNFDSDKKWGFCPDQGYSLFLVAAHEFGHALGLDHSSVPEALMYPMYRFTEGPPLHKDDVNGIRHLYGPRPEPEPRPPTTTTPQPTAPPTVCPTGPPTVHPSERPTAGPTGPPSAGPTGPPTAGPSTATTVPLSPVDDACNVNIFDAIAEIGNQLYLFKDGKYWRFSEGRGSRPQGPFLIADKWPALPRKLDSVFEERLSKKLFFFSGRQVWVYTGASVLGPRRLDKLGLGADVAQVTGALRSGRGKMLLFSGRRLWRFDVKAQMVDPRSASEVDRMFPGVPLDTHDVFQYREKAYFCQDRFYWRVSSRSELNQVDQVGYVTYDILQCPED
Experimental: as §1

[6] = system: E. coli; assay: Antibacterial activity (cell growth, MIC); format: cell-based; conditions: Escherichia coli
Experimental: (§2) FIG. 5 Inhibition of B. subtilis (A) and E. coli (B) cell growth by inhibitor 2. An overnight culture was diluted 1000-fold into 2 mL of fresh LB medium containing the specified concentrations of inhibitor 2 and incubated at 37° C. Cell densities were measured at the specified times on a UV-vis spectrophotometer.
(§3) The in vitro antibacterial activity of the cyclic inhibitor was tested against E. coli and Bacillus subtilis, the representative Gram-negative and Gram-positive bacteria, respectively.
(§4) Antimicrobial Susceptibility Testing. For Escherichia coli and Bacillus subtilis, cell growth was monitored on the Lambda-20 UV/Vis spectrophotometer at 600 nm. A single bacterial colony from a plate culture was grown overnight in LB media and was diluted 1000-fold into 2 mL of fresh growth medium containing 0-64 μg/mL of test agent in a 5-mL glass test tube shaken at a speed of 250 rpm. Cell growth (at 37° C.) was monitored for 0-600 min.
(§5) Antibacterial Activity of PDF Inhibitors Inhibitors 2-7E were tested against two or more bacterial strains for antibacterial activities.

[7] = system: B. subtilis; assay: Antibacterial activity (cell growth, MIC); format: cell-based; conditions: Bacillus subtilis
Experimental: as §2, §3, §4, §5

[8] = target: T4, E. coli PDF (Escherichia coli, UniProt P0A6K3); assay: Aminopeptidase assay of PDF inhibition; format: biochemical
T4 construct: made in house
T4 sequence (P0A6K3 whole entry): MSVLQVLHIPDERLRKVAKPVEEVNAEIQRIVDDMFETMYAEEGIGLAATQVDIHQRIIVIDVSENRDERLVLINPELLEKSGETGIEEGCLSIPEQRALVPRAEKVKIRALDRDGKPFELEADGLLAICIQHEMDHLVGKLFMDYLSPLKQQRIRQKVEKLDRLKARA
Experimental: Aminopeptidase Assay of Compound 2 The inhibition constant was also determined independently using and aminopeptidase assay.^37 Assay reactions (total volume of 500 μL) containing 50 mM Hepes (pH 7.0), 150 mM NaCl, 8.0 nM E. coli PDF, and 0-50 nM inhibitor 2 were incubated on ice for 2 h. Prior to reaction initiation, the mixture was brought to room temperature for 10 min. The PDF reaction was then initiated by the addition of substrate formyl-Met-Leu-p-nitronilide (final concentration 110 μM) and allowed to proceed for 3 min at room temperature before being quenched by heating at 95° C. for 10 min (the inactivation process is usually complete within the first 30 s). After cooling to room temperature, 1.0 unit of Aeromonas aminopeptidase (AAP) was added to the solution and the mixture was incubated for 15 min at room temperature. The absorbance at 405 nm was measured on a UV-Vis spectrophotometer. […] For all end-point assay reactions, the substrate to product conversion was kept at <20%.

[9] = system: S. pneumoniae (ATCC 6301); assay: Antibacterial activity (MIC); format: cell-based; conditions: Streptococcus pneumoniae, ATCC6301
Experimental: as §5

[10] = system: S. pneumoniae (ATCC 49619); assay: Antibacterial activity (MIC); format: cell-based; conditions: Streptococcus pneumoniae, ATCC49619
Experimental: as §5

[11] = system: S. pneumoniae (ATCC 6303); assay: Antibacterial activity (MIC); format: cell-based; conditions: Streptococcus pneumoniae, ATCC6303
Experimental: as §5

[12] = system: S. aureus (ATCC 29213); assay: Antibacterial activity (MIC); format: cell-based; conditions: Staphylococcus aureus, ATCC29213
Experimental: as §5

[13] = system: E. faecalis (ATCC 29212); assay: Antibacterial activity (MIC); format: cell-based; conditions: Enterococcus faecalis, ATCC29212
Experimental: as §5

[14] = system: M. catarrhalis (ATCC 37054); assay: Antibacterial activity (MIC); format: cell-based; conditions: Moraxella catarrhalis, ATCC37054
Experimental: as §5

[15] = system: H. influenzae (ATCC 31517); assay: Antibacterial activity (MIC); format: cell-based; conditions: Haemophilus influenzae, ATCC31517
Experimental: as §5

[16] = formate dehydrogenase-coupled assay, 4 nM E. coli PDF, pH 7.0, read-out: K1 (apparent inhibition constant)

T1 sequence (P0A6K3 whole entry): as above

In the case of CCCC[C@H](CN(O)C=O)C(=O)N[C@H](C(=O)N(C)C)C(C)(C)C [BB-3497, reference compound], the Ki [1, 16] is reported as about 7 nM.

CC(C)(C)[C@@H]1NC(=O)[C@@H](CN(O)C=O)CCCCCCCNC1=O [Compound 1E] gave a Ki [1, 16] of 14 ± 3 nM, a remaining activity at 1 µM [2] of 97% and a remaining activity at 10 µM [2] of 80%. The remaining activity at 1 µM [3] was 90%, the remaining activity at 10 µM [3] was 85% and the remaining activity at 1 µM [4] was 100%. For the same compound, the remaining activity at 10 µM [4] was 99%, the remaining activity at 1 µM [5] was 92% and the remaining activity at 10 µM [5] was 89%.

In the case of CC(C)(C)C1NC(=O)C(CN(O)C=O)CCCCCCCCCNC1=O (centres unmarked) [Compound 2, N-(3-tert-Butyl-2,5-dioxo-1,4-diaza-cyclopentadec-6-ylmethyl)-N-hydroxy-formamide], the MIC [6] is reported as ~32 µM and ~12 µg/mL, the MIC ([7]; read-out: MIC) is reported as 0.7 to 1.4 µg/mL and the MIC ([7]; read-out: minimal inhibitory concentration (MIC)) is reported as 2 to 4 µM. For the same compound, the Ki [8] was 0.33 ± 0.15 nM, the MIC [9] was 4 µg/mL (≈ 10.8 µM) and the MIC [10] was 4 µg/mL (≈ 10.8 µM). It also gave an MIC [11] of 2 µg/mL (≈ 5.41 µM), an MIC [12] of 16 µg/mL (≈ 43.3 µM) and an MIC [13] of over 32 µg/mL. The MIC [14] was 0.62 µg/mL (≈ 1.68 µM), the MIC [15] was 0.5 µg/mL (≈ 1.35 µM) and the Ki [1] was 0.67 ± 0.2 nM. The “fold more potent against PDF than the acyclic parent/counterpart” value ([1]; cyclic versus acyclic inhibitor) was about 10 fold, the remaining activity at 1 µM [2] was 97% and the remaining activity at 10 µM [2] was 91%. It also gave a remaining activity at 1 µM [3] of 96%, a remaining activity at 10 µM [3] of 92% and a remaining activity at 1 µM [4] of 93%. The remaining activity at 10 µM [4] was 86%, the remaining activity at 1 µM [5] was 95% and the remaining activity at 10 µM [5] was 91%.

CC(C)(C)[C@@H]1NC(=O)[C@@H](CN(O)C=O)CCCCCCCCCCNC1=O [Compound 3E] gave a Ki [1, 16] of 0.4 nM.

Work on CC(C)(C)[C@@H]1NC(=O)[C@@H](CN(O)C=O)CCCCCCCCCCCNC1=O [Compound 4E] yielded an MIC [6] of over 24 µg/mL, an MIC ([7]; read-out: MIC) of about 0.2 µg/mL and a Ki [1] of 0.22 nM.
